# Test results published in US11179363B2, “Non-steroidal selective glucocorticoid receptor agonistic modulators (SEGRAMs) and uses thereof” (ASSOCIATION POUR LA RECHERCHE À L'IGBMC (ARI), priority 2017, dated 2021).
# Experiments:
# [1] = tested on: OVA-induced asthma-like allergic lung inflammation; experiment: Ovalbumin (OVA)-induced asthma-like allergic lung inflammation; type: in vivo, mice; conditions: OVA model
# Experimental: Glucocorticoids have been (Pearlman et al., 1997. Ann Allergy Asthma Immunol. 78(4):356-62), and are still, widely used in asthma therapy. In order to investigate the possible CpdX anti-inflammatory activity in vivo, mice were sensitized and challenged with either ovalbumin (OVA) or house dust mite (HDM) to induce an asthma-like allergic lung inflammation.
# Mice were intraperitoneally sensitized with either 50 μg OVA together with alum or with alum alone on D0, D7 and D14. Mice were then subdivided into three groups, and on D19, D20 and D21, they were intranasally (i.n.) challenged with 10 μg OVA. The first and the second group received intranasally 0.5 mg/kg of body weight of Dex or CpdX respectively, while the third group served as a control.
# On D22, the lung allergic inflammation was assessed for each mouse by examination of the bronchoalveolar lavage fluid (BAL). The total BAL cells, eosinophils, neutrophils, macrophages and lymphocytes were counted. RNA transcripts were extracted from lung samples and RNA transcripts of IL-1β, IL-6, IL-4, IL-5, IL-10, IL-13, Eotaxin, CCL4 and TNFα were analyzed by q-RT-PCR. Histological (with H&E staining) and immunohistochemical (with eosinophil-specific and neutrophil-specific antibodies) analyses of lung tissues were also carried out.
# [2] = molecular target: T1, glucocorticoid receptor (GR) (Mus musculus, UniProt P06537); experiment: In vivo transcriptional analysis (q-RT-PCR) of the three GR functions in mouse ears; design: species or system Balb/C mice; conditions: topical 18 hours
# T1 construct: RNA transcripts were then extracted from mouse ears; from tissue; host or cells: ear skin of Balb/C mice (in vivo topical treatment)
# T1 sequence (P06537 1-792): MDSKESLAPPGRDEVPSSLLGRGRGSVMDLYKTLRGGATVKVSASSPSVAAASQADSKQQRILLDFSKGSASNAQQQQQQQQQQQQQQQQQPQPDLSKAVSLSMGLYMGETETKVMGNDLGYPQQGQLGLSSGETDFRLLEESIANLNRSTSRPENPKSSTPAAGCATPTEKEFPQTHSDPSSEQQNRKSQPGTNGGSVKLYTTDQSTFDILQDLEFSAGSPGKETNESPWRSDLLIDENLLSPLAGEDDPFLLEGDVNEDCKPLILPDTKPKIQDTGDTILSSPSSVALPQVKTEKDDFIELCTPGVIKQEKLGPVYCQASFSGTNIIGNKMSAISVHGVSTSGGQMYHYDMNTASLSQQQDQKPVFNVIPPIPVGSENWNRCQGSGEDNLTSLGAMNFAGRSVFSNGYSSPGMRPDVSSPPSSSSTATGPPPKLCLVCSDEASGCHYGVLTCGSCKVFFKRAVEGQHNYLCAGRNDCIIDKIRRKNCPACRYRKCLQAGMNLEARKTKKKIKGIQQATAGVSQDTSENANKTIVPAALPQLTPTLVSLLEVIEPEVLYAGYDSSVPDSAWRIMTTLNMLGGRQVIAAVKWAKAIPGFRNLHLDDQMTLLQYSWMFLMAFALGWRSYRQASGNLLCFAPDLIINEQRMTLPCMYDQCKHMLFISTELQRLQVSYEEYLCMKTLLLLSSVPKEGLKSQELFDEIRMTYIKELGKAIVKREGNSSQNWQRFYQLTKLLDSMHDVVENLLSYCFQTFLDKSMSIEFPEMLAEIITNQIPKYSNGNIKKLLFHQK
# Experimental: RNA transcripts were then extracted from mouse ears and the transcripts of 4 genes were analyzed by q-RT-PCR: • (i) the directly GR-transactivated gene of the mTOR inhibitor REDD1, • (ii) the GR-directly transrepressed gene of keratin 5 (K5) and • (iii) the GR-indirectly “tethered” transrepressed genes of interleukin-1β (IL-1β) and interleukin-6 (IL-6), both being activated in presence of 12-O-tetradecanoylphorbol-13-acetate (TPA). Results
# GR = molecular target: T2, GR (Homo sapiens, UniProt P04150); conditions: cited from earlier work
# T2 sequence (P04150 1-777): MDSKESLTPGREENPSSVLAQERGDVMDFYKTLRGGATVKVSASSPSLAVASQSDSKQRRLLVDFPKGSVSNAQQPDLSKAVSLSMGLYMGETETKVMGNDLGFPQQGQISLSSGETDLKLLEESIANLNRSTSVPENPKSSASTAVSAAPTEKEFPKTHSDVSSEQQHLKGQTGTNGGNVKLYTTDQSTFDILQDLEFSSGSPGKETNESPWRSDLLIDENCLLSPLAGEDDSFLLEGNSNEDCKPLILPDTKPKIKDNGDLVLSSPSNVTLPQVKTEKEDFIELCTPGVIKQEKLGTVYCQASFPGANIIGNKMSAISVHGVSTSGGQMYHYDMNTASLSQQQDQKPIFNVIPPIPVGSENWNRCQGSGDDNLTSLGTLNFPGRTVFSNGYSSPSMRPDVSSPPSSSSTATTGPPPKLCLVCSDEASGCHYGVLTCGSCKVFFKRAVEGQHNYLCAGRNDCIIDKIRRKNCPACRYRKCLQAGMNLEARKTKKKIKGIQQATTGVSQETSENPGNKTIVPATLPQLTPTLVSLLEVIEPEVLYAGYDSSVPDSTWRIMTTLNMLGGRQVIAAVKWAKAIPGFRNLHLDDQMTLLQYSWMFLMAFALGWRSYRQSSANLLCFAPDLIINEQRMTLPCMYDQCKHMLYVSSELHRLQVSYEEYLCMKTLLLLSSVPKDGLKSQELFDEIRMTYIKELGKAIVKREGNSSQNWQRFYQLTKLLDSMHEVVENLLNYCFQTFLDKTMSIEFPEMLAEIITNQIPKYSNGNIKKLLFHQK
structure (smiles),measurement,setting,value
"COc1ccc(F)cc1C(C)(C)CC(O)(CNc1ccc2c(c1)COC2=O)C(F)(F)F (racemic) [CpdX, 5-[4-(5-fluoro-2-methoxyphenyl)-2-hydroxy-4-methyl-2-(trifluoromethyl)pentylamino]-isobenzofuran-1(3H)-one]",eosinophils and neutrophils in lung (immunohistochemistry),[1]; data not shown,similarly decreased
same,number of macrophages in BAL,"[1]; intranasal 0.5 mg/kg, D22",unchanged
same,"total number of BAL cells, eosinophils, neutrophils and lymphocytes","[1]; intranasal 0.5 mg/kg, D22, vs control group",significantly decreased
same,peribronchiolar and perivascular inflammatory cell infiltration (histology),[1]; lung paraffin sections,strongly decreased
same,"lung expression of IL-1β, IL-6, IL-4, IL-5, IL-10, IL-13, Eotaxin, CCL4 and TNFα",[1]; q-RT-PCR,significantly and similarly decreased
same,"GR functions induced (direct transactivation, direct transrepression, indirect tethered transrepression)",[2]; 1 nmole/cm^2,selectively exhibits an indirect tethered transrepression activity
same,K5 gene relative RNA expression (GR direct transrepression),"[2]; 1 nmole/cm^2, vs Vehicle",unchanged
same,REDD1 gene relative RNA expression (GR direct transactivation),"[2]; 1 nmole/cm^2, vs Vehicle",unchanged
same,indirect tethered transrepression activity of the GR,GR,still inducing
same,transactivation and direct transrepression functions of the GR,GR,does not induce
